Assay results taken from US20230040386A1, “URSODEOXYCHOLIC ACID-CONTAINING AGENT FOR TREATING OR PREVENTING PRESBYOPIA” (priority 2018, published 2023).

What was measured:
Format in all cases: in vivo, C57BL/6J mice
lens [1] = assay: Pharmacological Test 5: lens elasticity, 1% ursodeoxycholic acid once-daily for 1, 3, 7, 10 or 14 days; details: for Lens elasticity improvement: 1% sample, QD, 24 h after final instillation, vs untreated group
Method: A vehicle comprising 0.1% (w/v) of ethyl pyruvate, 0.269% (w/v) of sodium dihydrogenphosphate monohydrate (NaH2PO4H2O), 0.433% (w/v) of disodium hydrogenphosphate (Na2HPO4), 0.2% (w/v) of hydroxypropyl methylcellulose, 0.5% (w/v) of NaCl was prepared. Ursodeoxycholic acid was sonicated with the addition of the vehicle to prepare a 1.0% (w/v) suspension. The total amount of the sample to be used in one day was prepared before use. 1) The test sample (2.5 μL/eye) was instilled into both eyes of 8-month-old C57BL/6J mice with a Pipetman once per day (QD; around 13:30) for 1, 3, 7, 10, or 14 days. 2) Twenty-four hours after the final instillation, the mice were euthanized by carbon dioxide inhalation, and then the eyeballs were extracted and rinsed with Hank's balanced salt solution (HBSS). 3) The sclera near the optic nerve was cut with a razor, the lens was removed through the incision, and the removed lens was immersed in HBSS. 4) The lens was placed on a glass slide, and an all-in-one fluorescence microscope BZ-9000 (Keyence) was used to capture an image of the lens (image a). 5) Next, one cover glass (Corning^(registered trade mark) 22×22 mm Square) was placed on the lens, and an image in which the thickness of the lens changed due to the weight was similarly captured (Image b). 6) A change in the lens diameter was calculated from Equation 1 wherein the lens diameter of Image a is subtracted from the lens diameter of Image b, as described below. Then, the lens elasticity improvement of each sample group compared with the […] was calculated from Equation 2 described below. Each mean of the untreated group and each ursodeoxycholic acid sample group was based on 9 or 10 eyes. Change in lens diameter=Lens diameter in Image b of each test sample−Lens diameter in Image a of each test sample (Equation 1) Lens elasticity improvement of each sample group=Mean change in lens diameter of each Test sample group−Mean change in lens diameter of Untreated group (Equation 2)

lens [2] = assay: Pharmacological Test 1: lens elasticity after instillation of EV06; details: all of the 0.5%, 1.5% and 5% groups compared with vehicle control group
Method: The effect of lipoic acid choline ester (EV06) on the lens elasticity was examined. The tests were conducted with reference to the methods described in InvestOphthalmol Vis Sci, 57, 2851-2863, 2016. EV06 is a compound represented by the following formula (2): A vehicle comprising 0.1% (w/v) of ethyl pyruvate, 0.269% (w/v) of sodium dihydrogenphosphate monohydrate (NaH2PO4H2O), 0.433% (w/v) of disodium hydrogenphosphate ([…]), 0.2% (w/v) of hydroxypropyl methylcellulose, and 0.5% (w/v) of NaCl was prepared. EV06 was sonicated with the addition of the vehicle to prepare a 5% (w/v) suspension. The resulting 5% (w/v) suspension was diluted with the vehicle to prepare a 1.5% (w/v) solution. Further, the resulting 1.5% (w/v) solution was diluted with the vehicle to prepare a 0.5% (w/v) solution. The total amount of each sample to be used in one day was prepared before use. […] 4) The lens was placed on a glass slide, and an all-in-one fluorescence microscope BZ-9000 (Keyence) was used to capture an image of the lens (Image a). […] 6) A change in the lens diameter was calculated from Equation 1 wherein the lens diameter of Image a is subtracted from the lens diameter of Image b, as described below. Then, the lens elasticity improvement of each sample group compared with the vehicle control group was calculated from Equation 2 described below. […]

lens [3] = assay: Pharmacological Test 2: lens elasticity after instillation of sodium ursodeoxycholate; details: 1.5% (w/v) sample, 2.5 μL/eye, 3 times per day, 12 to 15 days, vs vehicle control
Method: A vehicle comprising 0.1% (w/v) of ethyl pyruvate, 0.269% (w/v) of sodium dihydrogenphosphate monohydrate (NaH2PO4H2O), 0.433% (w/v) of disodium hydrogenphosphate (Na2HPO4), 0.2% (w/v) of hydroxypropyl methylcellulose, 0.5% (w/v) of NaCl was prepared. Sodium ursodeoxycholate was sonicated with the addition of the vehicle to prepare a 1.5% (w/v) suspension. The resulting 1.5% (w/v) suspension was diluted with the vehicle to prepare a 0.5% (w/v) suspension. Further, the resulting 0.5% (w/v) suspension was diluted with the vehicle to prepare a 0.15% (w/v) suspension. The total amount of each sample to be used in one day was prepared before use. EV06 was sonicated with the addition of the vehicle to prepare a 1.5% (w/v) solution. The total amount of the sample to be used in one day was prepared before use. 1) Each test sample (2.5 μL/eye) was instilled into the right eye of 8-month-old C57BL/6J mice with a Pipetman 3 times per day (around 9:00, 13:00 and 17:00) for 12 to 15 days. 2) After the final instillation, the mice were euthanized by carbon dioxide inhalation, and then the eyeballs were extracted and rinsed with Hank's balanced salt solution (HBSS)). 3) The sclera near the optic nerve was cut with a razor, the lens was removed through the incision, and the removed lens was immersed in HBSS. 4) The lens was placed on a glass slide, and an all-in-one fluorescence microscope BZ-9000 (Keyence) was used to capture an image of the lens (Image a). 5) Next, one cover glass (Corning^(registered trade mark) 22×22 mm Square) was placed on the lens, and an image in which the thickness of the lens changed due to the weight was similarly captured (Image b). 6) A change in the lens diameter was calculated from Equation 1 wherein the lens diameter of Image a is subtracted from the lens diameter of Image b, as described below. Then, the lens elasticity improvement of each sample group compared with the vehicle control group was calculated from Equation 2 described below. The mean of the vehicle control group was based on 5 eyes, the mean of each sodium ursodeoxycholate sample group was based on 10 eyes, and the mean of the EV06 sample group was based on 10 eyes. Change in lens diameter Lens diameter in image b of each test sample−Lens diameter in Image a of each test sample (Equation 1) Lens elasticity improvement of each sample group=Mean change in lens diameter of each Test sample group−Mean change in lens diameter of Vehicle control group (Equation 2)

SMILES | Lens elasticity improvement, in words (lens [1]; 1% sample instilled once-daily, by duration of instillation) | Lens elasticity improvement (lens [1]; 1 day) [μm] | Lens elasticity improvement (lens [1]; 3 days) [μm] | Lens elasticity improvement (lens [1]; 7 days) [μm] | Lens elasticity improvement (lens [1]; 10 days) [μm] | Lens elasticity improvement (lens [1]; 14 days) [μm] | Lens diameter / elasticity improving effect, in words (lens [2]) | Lens elasticity improvement (lens [3]) [μm]
C[C@H](CCC(=O)O)[C@H]1CC[C@H]2[C@@H]3[C@@H](O)C[C@@H]4C[C@H](O)CC[C@]4(C)[C@H]3CC[C@]12C [ursodeoxycholic acid, 3α,7β-Dihydroxy-5β-cholan-24-oic acid] | showed definitely an improvement in lens elasticity after instillation for 3 days | 9.6 | 21.1 | 27.4 | 38.1 | 34.2 | – | –
C[N+](C)(C)CCOC(=O)CCCC[C@@H]1CCSS1 [EV06, lipoic acid choline ester] | – | – | – | – | – | – | increased lens diameter | 38.2
